What follows are molecules tested on Tunicamycin induced ISR (ATF4) in wild-type HEK293 cells (assay: HEK-ATF4 High Content Imaging assay (prevention of Tunicamycin induced ISR, ATF4 nucleus/cytoplasm signal ratio)). Conditions: Homo sapiens, 6 hrs incubation, ATF4 immunofluorescence.
Type: cell-based
Protocol: HEK-ATF4 High Content Imaging Assay
Example compounds were tested in the HEK-ATF4 High Content Imaging assay to assess their pharmacological potency to prevent Tunicamycin induced ISR. Wild-type HEK293 cells were plated in 384-well imaging assay plates at a density of 12,000 cells per well in growth medium (containing DMEM/F12, 10% FBS, 2 mM L-Glutamine, 100 U/mL Penicillin—100 μg/mL Streptomycin) and incubated at 37° C., 5% CO2. 24-hrs later, the medium was changed to 50 μl assay medium per well (DMEM/F12, 0.3% FBS, 2 mM L-Glutamine, 100 U/mL Penicillin—100 μg/mL Streptomycin). Example compounds were serially diluted in dimethyl sulfoxide (DMSO), spotted into intermediate plates and prediluted with assay medium containing 3.3 μM Tunicamycin to give an 11-fold excess of final assay concentration. In addition to the example compound testing area, the plates also contained multiples of control wells for assay normalization purposes, wells, containing Tunicamycin but no example compounds (High control), as well as wells containing neither example compound nor Tunicamycin (Low control). The assay was started by transferring 5 μl from the intermediate plate into the assay plates, followed by incubation for 6 hrs at 37° C., 5% CO2. Subsequently, cells were fixed (4% PFA in PBS, 20 min at room temperature) and submitted to indirect ATF4 immunofluorescence staining (primary antibody rabbit anti ATF4, clone D4B8, Cell Signaling Technologies; secondary antibody Alexa Fluor 488 goat anti-rabbit IgG (H+L), Thermofisher Scientific). Nuclei were stained using Hoechst dye (Thermofisher Scientific), and plates were imaged on an Opera Phenix High Content imaging platform equipped with 405 nm and 488 nm excitation. Finally, images were analyzed using script based algorithms. The main readout HEK-ATF4 monitored the ATF4 signal ratio between nucleus and cytoplasm. Tunicamycin induced an increase in the overall ATF4 ratio signal, which was prevented by ISR modulating example compounds. In addition, HEK-CellCount readout was derived from counting the number of stained nuclei corresponding to healthy cells. This readout served as an internal toxicity control.
For `O=C(COc1ccc(Cl)c(F)c1)N[C@@H]1CC[C@@H](c2nnc(-c3ccc(Cl)cc3)o2)OC1` [Example 1, 2-(4-chloro-3-fluoro-phenoxy)-N-[(3R,6S)-6-[5-(4-chlorophenyl)-1,3,4-oxadiazol-2-yl]tetrahydropyran-3-yl]acetamide], the IC50 was 1 to 500 nM.
In the case of `O=C(COc1ccc(Cl)cc1)N[C@@H]1CC[C@@H](c2nnc(-c3ccc(Cl)cc3)o2)OC1` [Example 2, 2-(4-chlorophenoxy)-N-[(3R,6S)-6-[5-(4-chlorophenyl)-1,3,4-oxadiazol-2-yl]oxan-3-yl]acetamide], the IC50 is reported as 1 to 500 nM.
`O=C(COc1ccc(Cl)c(F)c1)N[C@@H]1CC[C@@H](c2nnc(-c3ccc(C(F)(F)F)nc3)o2)OC1` [Example 3, 2-(4-chloro-3-fluorophenoxy)-N-[(3R,6S)-6-{5-[6-(trifluoromethyl)pyridin-3-yl]-1,3,4-oxadiazol-2-yl}oxan-3-yl]acetamide] was tested, and the IC50 was 1 to 500 nM.
In the case of `O=C(COc1ccc(Cl)c(F)c1)N[C@H]1CC[C@H](c2nnc(-c3ccc(Cl)cc3)o2)OC1` [Example 4, 2-(4-chloro-3-fluorophenoxy)-N-[(3S,6R)-6-[5-(4-chlorophenyl)-1,3,4-oxadiazol-2-yl]oxan-3-yl]acetamide], the IC50 is reported as 1 to 500 nM.
`O=C(COc1ccc(Cl)c(F)c1)N[C@@H]1CC[C@@H](c2nnc(-c3ccc(C4CC4)nc3)o2)OC1` [Example 5, 2-(4-chloro-3-fluorophenoxy)-N-[(3R,6S)-6-[5-(6-cyclopropylpyridin-3-yl)-1,3,4-oxadiazol-2-yl]oxan-3-yl]acetamide] gave an IC50 of 1 to 500 nM.
For `CCc1ccc(-c2nnc([C@@H]3CC[C@@H](NC(=O)COc4ccc(Cl)c(F)c4)CO3)o2)cn1` [Example 6, 2-(4-chloro-3-fluorophenoxy)-N-[(3R,6S)-6-[5-(6-ethylpyridin-3-yl)-1,3,4-oxadiazol-2-yl]oxan-3-yl]acetamide], the IC50 was 500 to 2000 nM.
`O=C(COc1cnc(Cl)c(F)c1)N[C@@H]1CC[C@@H](c2nnc(-c3ccc(Cl)cc3)o2)OC1` [Example 7, 2-[(6-chloro-5-fluoropyridin-3-yl)oxy]-N-[(3R,6S)-6-[5-(4-chlorophenyl)-1,3,4-oxadiazol-2-yl]oxan-3-yl]acetamide] gave an IC50 of 1 to 500 nM.
`O=C(COc1ccnc(C(F)(F)F)c1)N[C@@H]1CC[C@@H](c2nnc(-c3ccc(Cl)cc3)o2)OC1` [Example 8, N-[(3R,6S)-6-[5-(4-chlorophenyl)-1,3,4-oxadiazol-2-yl]oxan-3-yl]-2-{[2-(trifluoromethyl)pyridin-4-yl]oxy}acetamide] was tested, and the IC50 was 500 to 2000 nM.
Molecule `O=C(COc1ccc(Cl)nc1)N[C@@H]1CC[C@@H](c2nnc(-c3ccc(Cl)cc3)o2)OC1` [Example 9, N-[(3R,6S)-6-[5-(4-chlorophenyl)-1,3,4-oxadiazol-2-yl]oxan-3-yl]-2-[(6-chloropyridin-3-yl)oxy]acetamide] has an IC50 of 1 to 500 nM.
Work on `Cc1ncc(OCC(=O)N[C@@H]2CC[C@@H](c3nnc(-c4ccc(Cl)cc4)o3)OC2)cc1F` [Example 10, N-[(3R,6S)-6-[5-(4-chlorophenyl)-1,3,4-oxadiazol-2-yl]oxan-3-yl]-2-[(5-fluoro-6-methylpyridin-3-yl)oxy]acetamide] yielded an IC50 of 500 to 2000 nM.
`O=C(COc1cnc(Cl)c(F)c1)N[C@@H]1CC[C@@H](c2nnc(-c3ccc(Cl)nc3)o2)OC1` [Example 11, 2-[(6-chloro-5-fluoropyridin-3-yl)oxy]-N-[(3R,6S)-6-[5-(6-chloropyridin-3-yl)-1,3,4-oxadiazol-2-yl]oxan-3-yl]acetamide] was tested, and the IC50 was 2000 to 15000 nM.
`Cc1ccc(OCC(=O)N[C@@H]2CC[C@@H](c3nnc(-c4ccc(Cl)cc4)o3)OC2)cn1` [Example 12, N-[(3R,6S)-6-[5-(4-chlorophenyl)-1,3,4-oxadiazol-2-yl]oxan-3-yl]-2-[(6-methylpyridin-3-yl)oxy]acetamide] gave an IC50 of 2000 to 15000 nM.
Molecule `O=C(COc1cnc(Cl)cn1)N[C@@H]1CC[C@@H](c2nnc(-c3ccc(Cl)cc3)o2)OC1` [Example 13, N-[(3R,6S)-6-[5-(4-chlorophenyl)-1,3,4-oxadiazol-2-yl]oxan-3-yl]-2-[(5-chloropyrazin-2-yl)oxy]acetamide] has an IC50 of 500 to 2000 nM.
`O=C(COc1cnc(Cl)nc1)N[C@@H]1CC[C@@H](c2nnc(-c3ccc(Cl)cc3)o2)OC1` [Example 14, N-[(3R,6S)-6-[5-(4-chlorophenyl)-1,3,4-oxadiazol-2-yl]oxan-3-yl]-2-[(2-chloropyrimidin-5-yl)oxy]acetamide] showed an IC50 of 500 to 2000 nM.
With `Cc1ncc(OCC(=O)N[C@@H]2CC[C@@H](c3nnc(-c4ccc(Cl)cc4)o3)OC2)cc1Cl` [Example 15, 2-[(5-chloro-6-methylpyridin-3-yl)oxy]-N-[(3R,6S)-6-[5-(4-chlorophenyl)-1,3,4-oxadiazol-2-yl]oxan-3-yl]acetamide] the IC50 was 1 to 500 nM.
With `O=C(COc1ccc(Cl)c(F)c1)N[C@@H]1CC[C@@H](c2nnc(-c3cncc(C(F)(F)F)c3)o2)OC1` [Example 16, 2-(4-chloro-3-fluorophenoxy)-N-[(3R,6S)-6-{5-[5-(trifluoromethyl)pyridin-3-yl]-1,3,4-oxadiazol-2-yl}oxan-3-yl]acetamide] the IC50 was 500 to 2000 nM.
`O=C(COc1ccc(Cl)c(F)c1)N[C@@H]1CC[C@@H](c2nnc(-c3ccnc(C(F)(F)F)c3)o2)OC1` [Example 17, 2-(4-chloro-3-fluorophenoxy)-N-[(3R,6S)-6-{5-[2-(trifluoromethyl)pyridin-4-yl]-1,3,4-oxadiazol-2-yl}oxan-3-yl]acetamide] gave an IC50 of 1 to 500 nM.
In the case of `O=C(COc1ccc(C(F)(F)F)nc1)N[C@@H]1CC[C@@H](c2nnc(-c3ccc(Cl)cc3)o2)OC1` [Example 18], the IC50 is reported as 1 to 500 nM.
`O=C(COc1cncc(C(F)(F)F)c1)N[C@@H]1CC[C@@H](c2nnc(-c3ccc(Cl)cc3)o2)OC1` [Example 19, N-[(3R,6S)-6-[5-(4-chlorophenyl)-1,3,4-oxadiazol-2-yl]oxan-3-yl]-2-{[5-(trifluoromethyl)pyridin-3-yl]oxy}acetamide] was tested, and the IC50 was 500 to 2000 nM.

Source: US20220213078A1, “MODULATORS OF THE INTEGRATED STRESS RESPONSE PATHWAY” (EVOTEC INTERNATIONAL GMBH, priority 2019, published 2022)
